Experimental data taken from patent US20100273722A1, “MODIFIED MINIATURE PROTEINS” (Yale University, priority 2007, published 2010).
No end group written: not given here.

Key:
[1] = Circular dichroism (wavelength- and temperature-dependent) of aPP variants, Example 1; assay type: physicochemical; conditions: 30 micromolar; for CD ellipticity at 222 nm: Tris buffer pH 8.0, 25° C.
Method: The CD spectra of each peptide (30 micromolar) were acquired in Tris buffer (25 mM Tris base, 50 mM NaCl, (pH 8.0)) at 25° C. in a 2 mm cell. Samples were scanned between 200 and 260 nm, with signal sampling every 0.5 nm, and three successive scans were averaged. Molar residue ellipticity values were calculated from the equation MRE=(Θsample−Θbuffer)/(L×c×n×1000), where Θ is the observed signal in millidegrees, L is the length of the cuvette in cm, c is the concentration of peptide in dmol cm^−3 and n is the number of amino acids in the molecule.
Temperature-dependent CD spectra of aPP^Y7AP13SV14P (30 micromolar) were acquired in Dulbecco's PBS (1 mM KH2PO4, 155 mM NaCl, 3 mM Na2HPO4, (pH 7.4)) in a 2 mm cell. The signal at 222 nm (MRE222) was monitored between 1° C. and 80° C. using the variable temperature module provided with the instrument. Data were collected with a 0.5° C. data pitch, 5 s delay time, 20° C./hour temperature slope, 4 s response, and 1 nm bandwidth. CD spectra were obtained as the temperature was raised and when the temperature was lowered to establish the reversibility of the folding transition. Additionally, a full wavelength scan was obtained before and after the thermal melt; an overlay of the two spectra is shown in FIG. 3A. […] Mean residue ellipticity values for the temperature dependent CD spectrum were calculated from the equation MRE=Θ222 nm/(L×c×n×1000), where Θ is observed signal at 222 nm (mdeg), L is the length of, the cuvette (cm), c is the concentration of peptide (dmol/cm^3) and n is the number of amino acids in the molecule. The first derivatives of the temperature-dependent CD spectra are shown in FIG. 3B, which is a plot of δMRE222/δT (units of deg cm^2 dmol^−1 K^−1). The Tm value reported in the main text corresponds to the temperature at which ∂MRE222/∂T is a maximum.

[2] = Temperature-dependent sedimentation equilibrium of aPP^Y7AP13SV14P, monomer-dimer-tetramer fit; assay type: physicochemical; conditions: for % monomer: at 30 micromolar total peptide concentration; for ln KA (m): m fixed to 4 (tetramer), PBS
Method: aPP^Y7AP13SV14P samples were prepared in Dulbecco's PBS buffer (as described above) at concentrations of 45, 90, and 180 micromolar. Sedimentation equilibrium experiments were performed as described above and monitored at 280 nm. Samples were centrifuged to equilibrium at three speeds (42,000, 50,000, and 60,000 rpm) at 5, 10, 15, 20, 25, and 30° C. The rotor containing the samples was agitated manually between temperature runs to redistribute the sample along the length of the cell and checked by an initial scan.
The sedimentation data obtained for aPP^Y7AP13SV14P at each temperature was globally fit to Eq. 2 as described above. […] Therefore, the data from within each temperature set was then globally fit to a monomer-n-mer-m-mer model. Based on the self-association trends of the other aPP variants, in which the folded peptides best fit to a monomer-dimer model and the unfolded peptides fit to a monomer-tetramer model, the values for n and m were fixed to 2 and 4 respectively. Data fit with these parameters and the resulting residuals are presented in FIG. 5 and a summary of the fitted parameter results are given in Table 3. […] Samples were prepared in PBS buffer (90 micromolar) and centrifuged to equilibrium at speeds of 42,000 (51), 50,000 (52), and 60,000 (53) rpm.

[3] = pH- and temperature-dependent; read-out: equilibrium dissociation constant (Kd) of the aPP dimer; cited from earlier work
[4] = Sedimentation equilibrium analytical ultracentrifugation of aPP variants, monomer-n-mer fit (self-association); assay type: physicochemical; conditions: for % monomer at 30 μM: 30 μM peptide; for % monomer at 30 μM / lnKA when n = 2 / n (stoichiometry of the self-associated complex): 25° C.; for lnKA when n = 2: monomer-dimer; for n (stoichiometry of the self-associated complex): monomer-n-mer fit; for Kd (self-association, dimer): n = 2, 25° C., calculated from ln KA
Method: Analytical ultracentrifugation experiments were performed using peptide solutions prepared in Tris.Cl buffer (25 mM Tris base, 50 mM NaCl, (pH 8.0)) at the appropriate concentrations (5 micromolar to 200 micromolar). Samples were then centrifuged to equilibrium at 25° C. at 42,000, 50,000, and 60,000 rpm. Data were collected with a 0.001 cm step size and successive scans were initiated at 2 h intervals. Samples were judged to have reached equilibrium when the radial concentration gradient remained unchanged over three successive scans using the Match module of Heteroanalysis software v1.1.19. The solvent density (ρ, rho) and partial specific volume ( ν, nu) were calculated using the Sedimentation Interpretation Program “Sednterp” software v1.08.
The data for each peptide (multiple concentrations at three speeds) was first fit globally to an equation describing the sedimentation of an ideal species of molecular weight Mn (Eq. 1) using Heteroanalysis software v1.1.19:
where C represents the concentration of the sedimenting species at distances r and r0 cm from the center of rotation; ν (nu) is the partial specific volume of the sedimenting species in cc/g; ρ (rho) is the density of the supporting buffer in g/cc; ω (omega) is the angular velocity of the rotor (radians/s); Mn is the “molar” molecular weight of sedimenting species (g/mol); R is the universal gas constant (8.315×10^7 ergs K^−1 mol^−1) and T is the temperature in degrees Kelvin.
In order to quantify this self-association, the data for each peptide was next fit globally to a monomer-n-mer equilibrium model using Eq. 2:
where n is the stoichiometry of the self-associated complex. Errors were calculated for n and lnKA using f-statistics to two standard deviations.
Samples were prepared in PBS buffer and centrifuged at speeds of 42,000 (41), 50,000 (42), or 60,000 RPM (43) at 25° C. Experimental data are shown as points; lines indicate the best fit to a monomer-n-mer model described by Eq. 2.

[5] = target: Hck SH3 domain-GST fusion protein (Homo sapiens, UniProt P08631); assay: Fluorescence polarization direct binding assay, Hck SH3
Chain of Hck SH3 domain-GST fusion protein (P08631 77-137): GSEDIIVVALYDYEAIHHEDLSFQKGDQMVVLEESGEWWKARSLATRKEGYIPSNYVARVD
Method: (§1) Polarization was measured by excitation with vertically polarized light at 485 nm and the fluorescence emission detected at 530 nm in both the vertical and horizontal directions. An average of five measurements were recorded for each well. Samples were equilibrated at room temperature for 25 min before analysis, a time sufficient for the binding reactions to reach equilibrium. The polarization data were fit using Kaleidagraph v3.6 software to Eq. 5, which is derived from first principles without assumptions. […] In this equation, Pobs is the observed polarization value at any given concentration of target protein (GST•SH3 domain). Pmin is the polarization of peptide^Flu at 50 nM in the absence of target protein. Pmax is the maximum polarization of peptide^Flu at saturation with target protein. Kd is the equilibrium dissociation constant. […] Free fits are shown. Kd values were estimated as described.

[6] = target: Fyn SH3 domain-GST fusion protein (Homo sapiens, UniProt P06241); assay: Fluorescence polarization direct binding assay, Fyn SH3
Chain of Fyn SH3 domain-GST fusion protein (P06241 81-142): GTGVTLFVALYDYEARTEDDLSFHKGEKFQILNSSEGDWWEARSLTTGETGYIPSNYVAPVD
Method: (§2) Polarization was measured by excitation with vertically polarized light at 485 nm and the fluorescence emission detected at 530 nm in both the vertical and horizontal directions. An average of five measurements were recorded for each well. Samples were equilibrated at room temperature for 25 min before analysis, a time sufficient for the binding reactions to reach equilibrium. The polarization data were fit using Kaleidagraph v3.6 software to Eq. 5, which is derived from first principles without assumptions. […] In this equation, Pobs is the observed polarization value at any given concentration of target protein (GST•SH3 domain). Pmin is the polarization of peptide^Flu at 50 nM in the absence of target protein. Pmax is the maximum polarization of peptide^Flu at saturation with target protein. Kd is the equilibrium dissociation constant. […] In these cases a lower limit Kd was estimated by setting Pmax equal to the observed polarization at the highest target protein concentration tested, which was often limited by solubility. […] Free fits are shown. Kd values were estimated as described. […] In several cases, the plots of polarization versus [SH3 domain] began to increase at high [SH3 domain] (>50 micromolar), perhaps because of a second binding event. In these cases (indicated by an asterisk (*) in Table 5), data above 50 micromolar target protein was excluded during the curve fits.

[7] = target: c-Src SH3 domain-GST fusion protein (Gallus gallus, UniProt P00523); assay: Fluorescence polarization direct binding assay, c-Src SH3; set-up: species or system chicken
Method: as §1

[8] = target: c-Src SH3^P133L (Gallus gallus, UniProt P00523, P133L); assay: Fluorescence polarization direct binding assay, c-Src SH3^P133L; set-up: species or system chicken
Method: as §1

[9] = target: Lck SH3 domain-GST fusion protein (Homo sapiens, UniProt P06239); assay: Fluorescence polarization direct binding assay, Lck SH3
Chain of Lck SH3 domain-GST fusion protein (P06239 62-128): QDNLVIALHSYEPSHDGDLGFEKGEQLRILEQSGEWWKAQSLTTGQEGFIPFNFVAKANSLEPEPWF
Method: as §2

[10] = target: Lyn SH3 domain-GST fusion protein (Homo sapiens, UniProt P07948); assay: Fluorescence polarization direct binding assay, Lyn SH3
Chain of Lyn SH3 domain-GST fusion protein (P07948 62-122): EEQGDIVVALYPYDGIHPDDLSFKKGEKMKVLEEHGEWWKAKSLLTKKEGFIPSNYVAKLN
Method: as §2

GPSQPTAPGDDASPEDLIRFYDNLQQYLNVVTRHRY [aPP^Y7AP13SV14P]
CD ellipticity at 222 nm [1]: -9700 deg cm^2 dmol^−1 | Tm (cooperative unfolding transition) ([1]; temperature-dependent CD at 222 nm): 20 °C | n (monomer-n-mer fit, Eq. 2) ([2]; 5° C.): 2.5 | % monomer ([2]; 5° C.): 74% | ln KA (m) ([2]; 5° C.): 25.7 (25.3, 26.0) | % monomer ([2]; 10° C.): 82% | ln KA (m) ([2]; 10° C.): 25.3 (25.0, 25.5) | % monomer ([2]; 15° C.): 84% | ln KA (m) ([2]; 15° C.): 25.6 (25.4, 25.8) | % monomer ([2]; 20° C.): 90% | ln KA (m) ([2]; 20° C.): 25.0 (24.8, 25.2) | KD (tetramer, monomer/dimer/tetramer model) ([2]; 25° C.): 6.8×10^−12 M^3 | % dimer ([2]; 25° C., at 30 micromolar): 9% | % tetramer ([2]; 25° C., at 30 micromolar): 1% | % monomer ([2]; 25° C.): 90% | ln KA (m) ([2]; 25° C.): 25.7 (25.4, 26.0) | n (monomer-n-mer fit, Eq. 2) ([2]; 30° C.): 3.6 | % monomer ([2]; 30° C.): 98% | ln KA (m) ([2]; 30° C.): 24.4 (24.2, 24.5)

avian pancreatic polypeptide (GPSQPTYPGDDAPVEDLIRFYDNLQQYLNVVTRHRY; ends and bridges not checked) [aPP, purchased from American Peptide Company, reference compound]
Kd [3]: 0.0004 to 5 µM | % monomer at 30 μM [4]: 23% | % in the dimer state at 30 micromolar ([4]; 30 micromolar): > 94% | lnKA when n = 2 [4]: when n = 2 12.41 | n (stoichiometry of the self-associated complex) [4]: 1.92 | Kd (self-association, dimer) [4]: 4.1 µM

GPSQPTYPGDDAPVEDLIRFADNLQQYLNVVTRHRY [aPP^Y21A]
CD ellipticity at 222 nm [1]: -14700 deg cm^2 dmol^−1 | % monomer at 30 μM [4]: 14% | lnKA when n = 2 [4]: when n = 2 13.57 | n (stoichiometry of the self-associated complex) [4]: 1.86 | Kd (self-association, dimer) [4]: 1.3 µM

CC(C)C[C@H](NC(=O)[C@@H]1CCCN1C(=O)[C@@H]1CCCN1C(=O)[C@H](C)NC(=O)CNC(=O)CNC(=O)[C@@H](N)CSCC(=O)Nc1ccc2c(c1)C(=O)OC21c2ccc(O)cc2Oc2cc(O)ccc21)C(=O)N1CCC[C@H]1C(=O)N1CCC[C@H]1C(=O)N[C@@H](CCCNC(=N)N)C(=O)N[C@@H](CC(N)=O)C(=O)N[C@@H](CCCNC(=N)N)C(=O)N1CCC[C@H]1C(=O)N[C@@H](CCCNC(=N)N)C(N)=O [^Flu1]
Kd [5]: 1.6 ± 0.2 µM | Kd [6]: 1.4 ± 0.2 µM | Kd [7]: 1.5 ± 0.1 µM | Kd [8]: > 100 µM | Kd [9]: > 20 µM | Kd [10]: 2 ± 0.3 µM
